Assays:
[1] = test system: RBC membrane permeability; experiment: Effect of 5-HT on cell membrane permeability of healthy RBCs (Example 3); type: cell-based, human
Method: A sample of whole blood from a healthy volunteer was drawn into ACD anticoagulant. The sample was then treated with 5-HT (900 ng/mL), and cell membrane permeability was evaluated 5 minutes after treatment.

[2] = test system: RBC membrane permeability to water; experiment: Cell scan of whole blood contacted with agents (Example 2), Pk0 measured; type: cell-based, human; details: for Pk0: whole blood of healthy volunteer in ACD, agent at the concentration listed in Table 1
Method: A sample of whole blood from a healthy volunteer was drawn into ACD anticoagulant. The unwashed sample was divided into aliquots and was analyzed using the Prior Shine Technology and/or the Provided Cell Scanning Technologies. The following outputs were obtained from the sample:
Using the technologies described herein, a cell-by-cell analysis was converted into a plot of percent change of cell volume vs. osmolality (“Cell Scan Plot”) by converting the individual peak voltage into a cell volume, then calculating a mean volume for an aliquot of cells, and plotting the means to generate the Cell Scan Plot. The percentage change of cell volume at each osmolality is calculated and compared to the mean cell volume of an isotonic cell (e.g., FIG. 1b). On such a plot, Pk0 (see 101) is the osmotic pressure at which the net water flow is zero (i.e., when a cell achieved its maximum volume, i.e., when it is a perfect sphere).
A sample of whole blood from a healthy volunteer was drawn into ACD anticoagulant. Blood samples were divided into aliquots, and each sample was contacted with an agent at concentrations consistent with the agent's in vivo concentration. […] Five minutes after exposure to an agent, the blood sample was evaluated for cell membrane permeability and Pk0 was measured.

Structure (SMILES)	Pk0 after treatment ([1]; 5-HT 900 ng/mL, 5 minutes after treatment, normal Pk0 approx. 140 before)	Pk0 shift after contacting with 5-HT ([1]; FIG. 5, RBCs of normal healthy individual)	Pk0 [2] [mOsm/kg]	Pk0 lowered to ([2]; after 10 minutes) [mOsm/kg]
NCCc1c[nH]c2ccc(O)cc12 [Agent 5-HT, 5-hydroxytryptamine]	approx. 110 mOsm/kg	approx. 30 mOsm/kg	110	
C[C@@H]1[C@H](O)[C@@H](C)/C=C/C=C/C=C/C=C/C=C/C=C/C=C/[C@H](O[C@@H]2O[C@H](C)[C@@H](O)[C@H](N)[C@@H]2O)C[C@@H]2O[C@](O)(C[C@@H](O)C[C@@H](O)[C@H](O)CC[C@@H](O)C[C@@H](O)CC(=O)O[C@H]1C)C[C@H](O)[C@H]2C(=O)O [Amphotericin B]			85	
OC[C@H]1O[C@@H](O[C@H]2[C@H](O)[C@@H](O)C(O)O[C@@H]2CO)[C@H](O)[C@@H](O)[C@H]1O (some centres unmarked) [Lactose]				100

Reference: patent US12433869B2, “Preventing and treating malaria” (priority 2019, dated 2025)
